One may read the EC50 as the midpoint of the concentration-response curve. By Ki is commonly meant a measure of affinity in units of concentration, obtained from inhibition or displacement. One may read the IC50 as the concentration needed to halve the response being measured. For orientation: half-life means how long it takes for the measured level to halve. A word on the CC50: it is the concentration at which the toxic effect on the cells reaches its halfway point.

This note sets out measurements from ChEMBL document CHEMBL4229345, “Inhibition of trypanosome alternative oxidase without its N-terminal mitochondrial targeting signal (ΔMTS-TAO) by cationic and non-cationic 4-hydroxybenzoate and 4-alkoxybenzaldehyde derivatives active against T. brucei and T. congolense” (Eur J Med Chem, 2018).

Some results are limits rather than exact numbers.

Series [1] relates to Trypanosoma brucei brucei. Put plainly: Anti-parasitic activity against bloodstream trypomastigote stage of Trypanosoma brucei brucei with AQP triple knock out after 48 hrs by resazurin-based assay. The class given is functional, organism-based. (Resazurin is reduced to fluorescent resorufin, in cell work by metabolically active cells.)
Series [2] is described as follows: Competitive inhibition of recombinant N-terminal His6 tagged SUMO-fused Trypanosoma brucei brucei TC221 TAO MTS deletion mutant expressed in Escherichia coli FN102 preincubated for 2 mins followed by ubiquinol-1 addition measured over 2 mins by Lineweaver-Burk plot analysis.
Series [3] can be described thus: Inhibition of recombinant N-terminal His6 tagged SUMO-fused Trypanosoma brucei brucei TC221 TAO MTS deletion mutant expressed in Escherichia coli FN102 preincubated for 2 mins followed by ubiquinol-1 addition measured over 2 mins by double beam-dual wavelength UV-spectrophotometry.
A short description of series [4]: Selectivity index, ratio of CC50 for HFF cells to EC50 for bloodstream trypomastigote stage of wild-type Trypanosoma brucei brucei Lister 427. The class given is toxicity. The note with it: human, read-out: Ratio CC50/EC50.
Series [5] deals with Trypanosoma brucei brucei. Put plainly: Resistance factor, ratio of EC50 for bloodstream trypomastigote stage of Trypanosoma brucei brucei AQP triple knock out to EC50 for bloodstream trypomastigote stage of wild-type Trypanosoma brucei brucei Lister 427. The class given is functional.
The test system of series [6] is Trypanosoma brucei brucei. Put plainly: Anti-parasitic activity against bloodstream trypomastigote stage of Trypanosoma brucei brucei with AQP2/3-dd knock out after 48 hrs by resazurin-based assay. The class given is functional, organism-based.
Series [7] in a line: Selectivity index, ratio of CC50 for HFF cells to EC50 for bloodstream form of Trypanosoma congolense IL3000. The note with it: human, read-out: Ratio CC50/EC50. The class given is toxicity.
Series [8] can be described thus: Half life in mouse serum by LC/MS analysis. The class given is ADME, cell-free.
Series [9] concerns Trypanosoma brucei brucei. Put plainly: Anti-parasitic activity against bloodstream trypomastigote stage of wild-type Trypanosoma brucei brucei Lister 427 after 48 hrs by resazurin-based assay. The note with it: Lister 427, 48 h. The class given is functional, organism-based.
Series [10] has as its system Trypanosoma brucei brucei. Put plainly: Resistance factor, ratio of EC50 for bloodstream trypomastigote stage of Trypanosoma brucei brucei with AQP2/3-dd knock out to EC50 for bloodstream trypomastigote stage of wild-type Trypanosoma brucei brucei Lister 427. The class given is functional.
The nature of series [11]: Resistance factor, ratio of EC50 for bloodstream trypomastigote stage of pentamidine/diminazene/melaminophenyl arsenical resistant Trypanosoma brucei B48 to EC50 for bloodstream trypomastigote stage of wild-type Trypanosoma brucei brucei Lister 427. The class given is functional.
Series [12] deals with Trypanosoma brucei. Put plainly: Anti-parasitic activity against bloodstream trypomastigote stage of pentamidine/diminazene/melaminophenyl arsenical resistant Trypanosoma brucei B48 after 48 hrs by resazurin-based assay. The class given is functional, organism-based. The following applies: B48, 48 h.
In series [13] the test system is Trypanosoma brucei brucei. Put plainly: Resistance factor, ratio of EC50 for bloodstream trypomastigote stage of wild-type Trypanosoma brucei brucei Lister 427 in presence of 5 mM glycerol to EC50 for bloodstream trypomastigote stage of wild-type Trypanosoma brucei brucei Lister 427. The class given is functional.
Series [14] has as its system Trypanosoma congolense. Put plainly: Anti-parasitic activity against bloodstream form of Trypanosoma congolense IL3000 after 48 hrs by resazurin-based assay. The class given is functional, organism-based. The following applies: IL3000, 48 h.
A short description of series [15]: Cytotoxicity against HFF cells assessed as reduction in cell viability after 30 hrs by resazurin-based assay. The following applies: human.
Series [16] is described as follows: Stability in mouse serum assessed as compound hydrolysis after 24 hrs by LC/MS analysis. The following applies: read-out: Drug degradation. The class given is ADME, cell-free.
In series [17] the test system is Trypanosoma brucei brucei. Put plainly: Anti-parasitic activity against bloodstream trypomastigote stage of wild-type Trypanosoma brucei brucei Lister 427 after 48 hrs in presence of 5 mM glycerol by resazurin-based assay. The class given is functional, organism-based. The note with it: Lister 427, 48 h.
The nature of series [18]: Noncompetitive inhibition of recombinant N-terminal His6 tagged SUMO-fused Trypanosoma brucei brucei TC221 TAO MTS deletion mutant expressed in Escherichia coli FN102 preincubated for 2 mins followed by ubiquinol-1 addition measured over 2 mins by Lineweaver-Burk plot analysis.
Series [19] in a line: Cytotoxicity against HEK cells assessed as reduction in cell viability after 30 hrs by resazurin-based assay. The following applies: human.
A short description of series [20]: Selectivity index, ratio of CC50 for HEK cells to EC50 for bloodstream trypomastigote stage of wild-type Trypanosoma brucei brucei Lister 427. The following applies: human, read-out: Ratio CC50/EC50. The class given is toxicity.
A short description of series [21]: Stability in mouse serum assessed as compound hydrolysis after 1 hr by LC/MS analysis. The class given is ADME, cell-free. The note with it: read-out: Drug degradation.
In series [22] the test system is Trypanosoma congolense. Put plainly: Potency index, ratio of diminazene EC50 to test compound EC50 for anti-parasitic activity against bloodstream form of Trypanosoma congolense IL3000. The class given is functional.
Series [23] relates to Trypanosoma brucei brucei. Put plainly: Potency index, ratio of diminazene EC50 to test compound EC50 for anti-parasitic activity against bloodstream trypomastigote stage of wild-type Trypanosoma brucei brucei Lister 427. The class given is functional.
Series [24] is described as follows: Selectivity index, ratio of CC50 for HEK cells to EC50 for bloodstream form of Trypanosoma congolense IL3000. The class given is toxicity. The note with it: human, read-out: Ratio CC50/EC50.

Take `Cc1cc(O)ccc1C(=O)OCCCCCCCCCCCCCC[n+]1cccc2ccccc21.[Br-]`: the EC50 in [1] was 0.086 µM; in series [6], 0.1 µM; in [9], 0.21 µM; in series [12] it was 0.3 µM; in series [14], 1.82 µM; in [17], 0.145 µM. For the same compound, the Ki in series [2] came to 0.0529 µM. For the same compound, the IC50 in series [3] came out at 0.03 µM. In addition, the selectivity ratio was more than 952 in series [4] and more than 110 in series [7]. For the same compound, the “Ratio EC50” value in series [5] is 0.41; in series [10] it was 0.47; in [11], 1.4; in series [13], 0.69. The same compound had a half-life in series [8] of 30 min. In addition, the CC50 at 30 h in series [15] is more than 200 µM. The metabolised at 24 h in series [16] was more than 99%.

In the case of `O=COCCCCCCCCCCCCCCCCOC(=O)c1ccc(O)cc1O`, the EC50 in [1] was 1.27 µM; in series [6] it was 5 µM; in series [9], 11.9 µM; in [12], 13 µM; in series [14], more than 100 µM; in [17] it was 5.1 µM. For the same compound, the IC50 in series [3] came out at 0.0144 µM. Moreover, in series [18], the Ki was found to be 0.0714 µM. For the same compound, the “Ratio EC50” value stood at 0.11 in [5], 0.42 in [10], 1.1 in series [11] and 0.43 in series [13]. Also, the CC50 at 30 h in series [19] was more than 400 µM. For the same compound, the selectivity ratio in series [20] is more than 34.

Turning to `Cc1cc(O)ccc1C(=O)OCCCCCCCCCCCCCCOC=O`, the EC50 in [1] turned out to be 1.8 µM; in series [6], 1.4 µM; in series [9] it was 4.1 µM; in series [12], 4.44 µM; in series [17], 7.8 µM. The Ki in series [2] was determined as 0.0041 µM. The IC50 in series [3] is 0.0011 µM. Besides, the selectivity ratio in series [4] was more than 48. Further, the “Ratio EC50” value in [5] was 0.45; in series [10], 0.34; in series [11] it was 1.1; in series [13] it was 1.92. The CC50 at 30 h in series [15] is more than 200 µM.

In the case of `O=C(OCCCCCCCCCCCCOC(=O)c1ccc(O)cc1O)c1ccc(O)cc1O`, the EC50 in series [1] is 8.9 µM; in [6], 26.7 µM; in series [9], 32.9 µM; in [12] it was 33.6 µM; in series [14] it was more than 100 µM; in [17] it was 13.6 µM. Besides, the IC50 in series [3] came to 0.007 µM. Moreover, the “Ratio EC50” value came out at 0.27 in [5], 0.81 in series [10], 1 in series [11] and 0.41 in series [13]. For the same compound, the CC50 at 30 h in series [19] was more than 400 µM. Besides, the selectivity ratio in series [20] was more than 12.

For `O=C(OCCCCCCCCCCOC(=O)c1ccc(O)cc1O)c1ccc(O)cc1O`, the EC50 was 7.1 µM in [1]; 24.6 µM in series [6]; 49 µM in [9]; 41.6 µM in series [12]; more than 100 µM in series [14]; 12.2 µM in series [17]. The IC50 in series [3] worked out at 0.0069 µM. In series [18], the Ki amounted to 0.0341 µM. Moreover, the “Ratio EC50” value worked out at 0.14 in series [5], 0.5 in [10], 0.85 in series [11] and 0.25 in series [13]. In series [19], the CC50 at 30 h was more than 400 µM. For the same compound, the selectivity ratio in series [20] is more than 8.

As for `O=C(OCCCCCCCCCCCCCCOC(=O)c1ccc(O)cc1O)c1ccc(O)cc1O`, the EC50 is 14.8 µM in series [1]; 28.2 µM in series [6]; 42.1 µM in series [9]; 36.6 µM in series [12]; more than 100 µM in series [14]; 15.9 µM in series [17]. For the same compound, the IC50 in [3] amounted to 0.0157 µM. For the same compound, the “Ratio EC50” value came out at 0.35 in [5], 0.67 in series [10], 0.87 in series [11] and 0.38 in [13]. The CC50 at 30 h in [19] is more than 400 µM. The selectivity ratio in [20] was more than 9.

Regarding `O=C(OCCCCCCCCCCCCCC[n+]1cccc2ccccc21)c1ccc(O)cc1O`, the IC50 in series [3] is 1.36 µM. For the same compound, the metabolised at 1 h in [21] came to 50%.

For the compound `O=C(OCCCCCCCCCCCCCC[P+](c1ccccc1)(c1ccccc1)c1ccccc1)c1ccc(O)cc1F.[Br-]`, the EC50 came out at 0.00037 µM in series [1]; 0.00025 µM in series [6]; 0.00058 µM in series [9]; 0.00075 µM in series [12]; 0.018 µM in series [14]; 0.00039 µM in series [17]. Further, the IC50 in [3] was found to be 0.03 µM. The selectivity ratio in series [4] was more than 344000; in series [7], more than 11000. The “Ratio EC50” value was 0.64 in series [5]; 0.43 in series [10]; 5 - 40 in series [22]; 1.3 in [11]; 0.66 in [13]; 5 - 40 in series [23]. The half-life in [8] was less than 15 min. In series [15], the CC50 at 30 h is more than 200 µM.

`O=C(OCCCCCCCCCCCCBr)c1ccc(O)cc1O`: the EC50 in series [1] stood at 4.7 µM; in series [6], 10 µM; in series [17], 6.2 µM. In [3], the IC50 came out at 0.0174 µM. Moreover, the selectivity ratio was more than 27 in series [4] and more than 7.7 in [24]. In addition, the “Ratio EC50” value in [5] is 0.32; in [10], 0.69; in [11], 1.03; in series [13] it was 0.42. In series [19], the CC50 at 30 h was more than 400 µM.
